The values below are quoted from earlier work in US20120283306A1, “MOUSE MODEL FOR AVM” (Georgia Health Sciences University, priority 2011, published 2012).

For the data set the following is noted: mouse, in vivo.

`Cc1ccc(-c2cc(C(F)(F)F)nn2-c2ccc(S(N)(=O)=O)cc2)cc1` [celecoxib]: the tolerability in mice result was “well tolerated”.
